Experimental data reported in patent publication US12043602B2, “Fendiline derivatives” (The Board of Regents of the University of Texas System, priority 2019, dated 2024).
Several values for one entry are separate records, joined by “and”; a condition that tells them apart may be missing. Identical values can stand only once. Entries after “also recorded” stand apart in the source; their conditions may differ. Like-named read-outs stand apart in the source and are kept apart here.

How the values were obtained:
[1] = test system: NCI H1975 (WT) lung tumor cells; experiment: CyQUANT proliferation assay; type: cell-based; set-up: key to IC50 proliferation NCI H1975 (WT): NE—Not efficacious; conditions: for IC50 proliferation NCI H1975 (WT): 72 h; for IC50: Homo sapiens, NCI-H1975, Table 11, lung
Method: (§1) Madine Darby Canine Kidney epithelial cells (MDCK) stably co-expressing mGFP-tagged full length oncogenic mutant K-Ras (GFP—K-RASG12V) or mGFP-LactC2 (peptide probe for phosphatidylserine) and mCherry-tagged to the amino acids 179-189 of H-RasC181S, C184S (mCherry-CAAX, localizes primarily to endomembranes) were grown in DMEM-high glucose/sodium pyruvate/10% FBS. The medium was supplemented with 1× Penicillin/Streptomycin for fluorescence microscopy assays, to avoid any microbial contamination from the test compounds added. KLE and Hec50 cells were maintained in DMEM-F-12 medium supplemented with 10% FBS. Hec-1A and Hec-1B cells were grown in McCoy's 5a medium supplemented with 10% FBS. ESS-1 cells were grown in RPMI 1640 medium supplemented with 20% FBS. MPanc96 cells were grown in DMEM supplemented with 10% FBS, MiaPaCa-2 cells in DMEM supplemented with 10% FBS and 2.5% horse serum and all other cell lines were grown in RPMI 1640 supplemented with 10% FBS. All cancer cell media were supplemented with ×Penicillin/Streptomycin. All cell lines were grown at 37° C. with 5% CO2.
(§2) Cells were seeded in 96-well plates. After 24 h, fresh growth medium supplemented with 0.1% vehicle (DMSO), or various concentrations of drugs was added and cells were grown for 72 h. Cell numbers were quantified using the CyQUANT® Cell Proliferation Assay Kit (Molecular Probes, Life Technologies), according to the manufacturer's protocol. Fluorescence measurement was used as a measure of live cell number.

[2] = test system: Ishikawa (WT) endometrial tumor cells; experiment: CyQUANT proliferation assay; type: cell-based; set-up: key to IC50 proliferation Ishikawa (WT): NE—Not efficacious; conditions: for IC50: Homo sapiens, Ishikawa
Method: as §1, §2

blood vessels in tumors = experiment: Blood vessel lumen area in tumor sections; set-up: species or system nu/nu mice; conditions: mouse, in vivo
Method: FIG. 8A-E. (A) Nu/nu mice implanted with MiaPaCa-2 tumors were treated with vehicle (DMSO) or compounds intraperitoneally and tumor sizes were measured with an external caliper every 3-4 days. (B) Tumor sections were stained with GFP-Lys. (C) Tumor sections were stained with antibodies against pERK. (D) Tumor sections were stained with cleaved caspase 3. (E) Blood vessel lumen area was also measured in tumor sections.
Immunohistochemistry. 4-5 μm sections were deparaffinized, rehydrated, and treated with 10 mM sodium citrate for heat induced antigen retrieval. After quenching endogenous peroxidase, and blocking with 2.5% normal goat serum (Vector Laboratories S-1012), sections were incubated overnight at 4° C. with primary antibody diluted in blocking solution as recommended by manufacturer (Cell Signaling). Controls were incubated with diluted normal rabbit IgG. After incubation with biotinylated secondary antibody diluted 1:250 in blocking serum for 45 min at rt, sections were incubated with VECTASTAIN ABC reagent for 30 min, and for development of the DAB chromogen the Quanto substrate was used. Slides were counter stained with Hematoxylin. Five fields per stained section per xenograft were photographed at 10X. CC3+ and pERK+ area and number of events per field were quantitated via automated image analysis (NIS Elements BR analysis ver. 4.13.04). Vessel number and lumen area per field used the same software with manual settings to trace vessel wall contours. Antibodies used are as follows: CC3: Cell Signaling #9661, use at 1:300. (Cleaved Caspase-3 (Asp175) Antibody. Rabbit polyclonal. pERK: Cell Signaling #4370: Phospho-p44/42 MAPK (Erk1/2) (Thr202/Tyr204) (D13.14.4E) XP Rabbit mAB. CD31 (PECAM-1) (D8V9E) XP Rabbit mAB (Cell signal # (Cell signal #77699). Normal rabbit IgG: Santa Cruz #sc-3888. Concentration is 50 μg/mL or 50 ng/μL. Prepared with 5 μg in 200 μL blocking solution. Goat Anti-Rabbit IgG Biotin Conjugate: Calbiochem #OS03B, Concentration=1.2 mg/mL. Recommended to be used for IHC at 1 μg/mL.

[3] = test system: NCI-H23 (Mut) lung tumor cells; experiment: CyQUANT proliferation assay; type: cell-based; conditions: Homo sapiens
Method: as §1, §2

[4] = test system: HPAC (Mut) pancreatic tumor cells; experiment: CyQUANT proliferation assay; type: cell-based; conditions: Homo sapiens, HPAC, 72 h
Method: as §1, §2

mGFP-K-RASG12V = mGFP-K-RASG12V (Homo sapiens (Human), UniProt P01116, G12V); experiment: K-Ras mislocalization assay (confocal microscopy, Manders coefficient); type: cell-based; set-up: key to Emax: Manders coefficient: fraction of mCherry-CAAX co-localizing with GFP-K-Ras; conditions: for IC50 / Emax: MDCK cells; for Emax: maximal effect, Manders coefficient
How it was run: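 Readout is the Manders coefficient: share of mCherry-CAAX overlapping mGFP-K-RASG12V in confocal images, proportional to K-Ras mislocalization. Stable MDCK co-expressing lines were exposed 48 h to various drug concentrations or 0.1% DMSO vehicle, then paraformaldehyde-fixed.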

[5] = Table 11, endometrial, read-out: IC50 (μM) Ishikawa (WT)
[6] = NCI-H23, 72 h, read-out: IC50 proliferation NCI-H23 (Mut)
[7] = NCI-H23, Table 11, lung, read-out: IC50 (μM) NCI H23 (Mut)
[8] = 48 h treatment, read-out: IC50 (μM), KRASG12V mislocalization

blood vessel dilation / vasodilatory effect in tumors (blood vessels in tumors)	SMILES	IC50 proliferation NCI H1975 (WT) [1]	IC50 [1] [µM]	IC50 proliferation Ishikawa (WT) ([2]; 72 h)	IC50 [2, 5] [µM]	IC50 [3, 6] [µM]	IC50 [3, 7] [µM]	IC50 [4] [µM]	IC50 (mGFP-K-RASG12V; [8]) [µM]	Emax (mGFP-K-RASG12V; 48 h)	Emax (mGFP-K-RASG12V; 48 h, listed as 12f)	fold increase in KRAS mislocalization potency (mGFP-K-RASG12V; versus hit 7) [fold]	fold potency loss / decreased potency (mGFP-K-RASG12V; versus 12f (NY0244)) [fold]	blood vessel dilation / vasodilatory effect in tumors (blood vessels in tumors; listed as 12h)	IC50 ([2]; 72 h, read-out: IC50 proliferation Ishikawa (WT)) [µM]	IC50 (mGFP-K-RASG12V; 48 h, read-out: KRAS mislocalization potency) [µM]	Emax (mGFP-K-RASG12V; 48 h, listed as 22)	Emax (mGFP-K-RASG12V; 48 h, listed as NY335)	blood vessel dilation / vasodilatory effect in tumors (blood vessels in tumors; listed as 22)
dilated	CC(NCCC(c1ccccc1)c1ccccc1)c1ccccc1 (centres unmarked) [Fendiline]	NE	> 30	NE	> 30	11.4	11.4 ± 1												
	COc1ccc([C@@H](C)N(CC=C(c2ccccc2)c2ccccc2)CCN2CCN(C)CC2)cc1 [NY0244, (R)-N-(1-(4-methoxyphenyl)ethyl)-N-(2-(4-methylpiperazin-1-yl)ethyl)-3,3-diphenylprop-2-en-1-amine]	NE	> 30	NE	> 30	3.81	3.8	5.55	0.1	0.75 ± 0.01	0.75 and 0.75 ± 0.01	5							
	COc1ccc([C@@H](C)N(CC=C(c2ccccc2)c2ccccc2)CCN2CCCC2)cc1 [NY0331, (R)-N-(1-(4-methoxyphenyl)ethyl)-3,3-diphenyl-N-(2-(pyrrolidin-1-yl)ethyl)prop-2-en-1-amine]							5.15	0.3	0.85 ± 0.04			3	no vasodilatory effects; also recorded: not changed					
	COc1ccc([C@@H](C)N(CC=C(c2ccccc2)c2ccccc2)CCCN2CCN(C)CC2)cc1 [NY0335, (R)-N-(1-(4-methoxyphenyl)ethyl)-N-(3-(4-methylpiperazin-1-yl)propyl)-3,3-diphenylprop-2-en-1-amine]	NE	> 30		11	4.14	4.1	5.81	0.02						11	0.02	0.81	0.81 ± 0.01	no vasodilatory effects; also recorded: not changed
